“And” between values parts separate entries of the source, which are not always exact repeats. Identical values can stand only once.
Key:
[1] = tested on: macrophage phagocytic response; experiment: Clearance rate of carbon particles from the circulation (phagocytic index, in vivo); parameters: species or system mice
Experimental: K., Sharma, M. L., Kaul, A and Khajuria, A. (1986) Immunomodulating agents of plant origin. 1. Preliminary screening. Journal of Ethnopharmacology. 18, 133-141.] Blood samples were collected before and at intervals varying between 2 and 90 min after carbon injection. An aliquot (10 μL) of blood samples were lysed with 2mL of 0.1% acetic acid and the transparency determined spectrophotometrically at 675 nm (Uvikon 810, spectrophotometer, Kontron Ltd., Switzerland) (Hudson and Hay, 1980). AD-B-63B was administered orally for 7 days and 30 min prior to the carbon injection. The rate of carbon clearance termed as phagocytic index was calculated (Table 4).

[2] = tested on: cell mediated immune response (DTH); experiment: SRBC induced delayed type hypersensitivity (DTH) response; type: in vivo, mice; details: for FOOT PAD THICKNESS Mean ± SE: 24 h after SRBC challenge
Experimental: Test material was administered 2 h after immunization of mice by 200 μl of 5×10^9 SRBCs/ml. On 7th day, the thickness of the left hind foot was measured with spheromicrometer (0.01 mm pitch) and was considered as control. These mice were then challenged by injecting the 20 μl of 5×10^9 SRBCs/ml intradermally into the left hind footpad. The footpad thickness was measured again at 24 h after challenge (Doherty, 1981).

[3] = tested on: humoral antibody response; experiment: SRBC induced haemagglutination antibody titre (humoral immune response); type: in vivo, mice; details: for ANTIBODY TITRE MEAN ± S.E: blood on day 7
Experimental: 200 μl of 5×10^9 SRBC/ml was used to immunize the animals on day 0. Animals were treated with graded doses of AD-B-63B i.e., 1, 2.5, 5 and 10mg/kg p.o. for next six consecutive days. Blood samples were collected on day 7 for antibody titre assay. Haemagglutination antibody titre was determined following the microtitration technique described by Nelson and Midenhall, 1967. The value of highest serum dilution causing visible Haemagglutination was taken as titre. BSA saline alone served as control (Table 7).

[4] = tested on: TNF-α; experiment: In vivo TNF-α estimation in serum of LPS challenged mice; parameters: species or system balb/c mice; details: 1, 2.5, 5 and 10 mg/kg oral for 6 days, LPS 1 mg/kg i.v., serum 90 min after LPS
Experimental: Invivo experiments were carried out using balb/c mice that were orally administrated with graded oral doses of AD-B-63B (1, 2.5, 5 and 10 mg/kg) for 6 days and challenged with LPS. Nitric oxide (NO) is an important mediator of diverse physiologic and pathologic processes, including many inflammatory diseases [Abramson S B, Amin A R, Clancy R M, Attur M, (2001). The role of nitric oxide in tissue destruction. Best Practice & Research Clinical Rheumatology; 15: 831-845]. Several lines of evidence implicate NO in the pathogenesis of inflammation. For example, rodents in animal models of arthritis generate abundant quantities of NO, as reflected in high levels of serum and urinary NO that develop in association with disease manifestations [Stefanovic-Racic M, Meyers K, Meschter C, Coffey J W, Hoffman R A, Evans C H, (1994). Monomethyl arginine, an inhibitor of nitric oxide synthase, suppresses the development of adjuvant arthritis in rats. Arthritis & Rheumatism; 37: 1062-1069.] [McCartney-Francis N, Allen J B, Mizel D E, Albina J E, Xie Q W, Nathan C F, Wahl S M, (1993). Suppression of arthritis by an inhibitor of nitric oxide synthase. Journal of Experimental Medicine; 178: 749-754.] [Weinberg J B, (1998). […] TNF-α, IL-1 beta and Nitric oxide production was evaluated by a commercial ELISA kits (R&D Systems) in serum from AD-B-63B treated mice, 90 min after LPS injection.

[5] = tested on: skin allograft rejection; experiment: Skin allograft rejection time; type: in vivo, mice
Experimental: The modified method of Billingham and Medawar (1951) [[…]] was followed to study the skin allograft rejection time in mice. Graded doses of test material AD-B-63B were administered to the animals for 7 days and graft rejection time (GRT) was recorded by daily observation of epithelial skin layer survival. […] The basic mechanism involved in increase in graft rejection time is the suppression of T lymphocytes. After transplantation, MHC peptide complexes of the foreign organ are recognized by CD4+ and CD8+ T cells of the recipient as non-self antigens. These T cells differentiate into effector T cells and stimulate an immune response. After T cells differentiate and migrate to the site, macrophages and other inflammatory agents are mediated to the site. Cytotoxic T cells (CD8+) lyse the endothelial cells on the graft, CD4+ Th1 activate macrophages and CD4+ Th2 aid in antibody production.

SMILES: CC(=O)OC(C)(C)/C=C/C(=O)[C@](C)(O)[C@H]1[C@H](O)C[C@@]2(C)[C@@H]3CC=C4[C@@H](C=C(O[C@@H]5O[C@H](CO)[C@@H](O)[C@H](O)[C@H]5O)C(=O)C4(C)C)[C@]3(C)C(=O)C[C@]12C [AD-B-63B, 2-O-β-D-glucopyranosyl cucurbitacin E]
- percent decrease in phagocytic index ([1]; 1 mg/kg): (14.28%↓)
- Phagocytic index [in vivo study] Mean ± S.E. ([1]; 1 mg/kg orally for 7 days): 1.08 ± 0.09
- percent decrease in phagocytic index ([1]; 5 mg/kg): (26.98%↓)
- Phagocytic index [in vivo study] Mean ± S.E. ([1]; 5 mg/kg orally for 7 days): 0.92 ± 0.04
- percent decrease in phagocytic index ([1]; 10 mg/kg): (26.19%↓)
- Phagocytic index [in vivo study] Mean ± S.E. ([1]; 10 mg/kg orally for 7 days): 0.93 ± 0.07
- decrease in phagocytic index ([1]; dose range of 1-10 mg/kg, oral for 7 days): 14.28-26.19%
- PERCENT INHIBITION (DTH response) ([2]; 1 mg/kg p.o.): 15.21↓ %
- FOOT PAD THICKNESS Mean ± SE ([2]; 1 mg/kg p.o.): 0.78 ± 0.01 mm
- PERCENT INHIBITION (DTH response) ([2]; 5 mg/kg p.o.): 28.26↓ %
- FOOT PAD THICKNESS Mean ± SE ([2]; 5 mg/kg p.o.): 0.66 ± 0.01 mm
- PERCENT INHIBITION (DTH response) ([2]; 10 mg/kg p.o.): 29.35↓ %
- FOOT PAD THICKNESS Mean ± SE ([2]; 10 mg/kg p.o.): 0.65 ± 0.02 mm
- SRBC induced DTH reaction ([2]; orally administered, graded doses): dose dependent decrease
- % ACTIVITY (decrease in antibody titre) ([3]; 1 mg/kg p.o.): 13.47↓ %
- ANTIBODY TITRE MEAN ± S.E ([3]; 1 mg/kg p.o. for six days): 5.33 ± 0.45
- % ACTIVITY (decrease in antibody titre) ([3]; 5 mg/kg p.o.): 33.11↓ %
- ANTIBODY TITRE MEAN ± S.E ([3]; 5 mg/kg p.o. for six days): 4.12 ± 0.33
- % ACTIVITY (decrease in antibody titre) ([3]; 10 mg/kg p.o.): 35.06↓ %
- ANTIBODY TITRE MEAN ± S.E ([3]; 10 mg/kg p.o. for six days): 4.00 ± 0.31
- antibody synthesis (haemagglutination antibody titre) ([3]; significant decrease at 2.5, 5 and 10 mg/kg p.o.): inhibition of antibody synthesis
- Level of serum TNF-α [4]: significant reduction
- GRAFT REJECTION (Percent), delayed ([5]; 1 mg/kg p.o.): 16.30% and 16.30↓ %
- REJECTION TIME Mean ± S.E. ([5]; 1 mg/kg p.o. for 7 days): 15.12 ± 0.11 days
- GRAFT REJECTION (Percent), delayed ([5]; 5 mg/kg p.o.): 29.23% and 29.23↓ %
- REJECTION TIME Mean ± S.E. ([5]; 5 mg/kg p.o. for 7 days): 16.80 ± 0.22 days
- GRAFT REJECTION (Percent), delayed ([5]; 10 mg/kg p.o.): 31.84% and 31.84↓ %
- REJECTION TIME Mean ± S.E. ([5]; 10 mg/kg p.o. for 7 days): 17.14 ± 0.23 days
